Test results as given in ChEMBL document CHEMBL2073963, “Transport of methotrexate (MTX) and folates by multidrug resistance protein (MRP) 3 and MRP1: effect of polyglutamylation on MTX transport” (Cancer Res, 2001).
One block for each compound: values may come before it.

Assays:
Assay type in all cases: functional, cell membranes
Set-up in all cases: scale not given: the % may be the effect or the level left
[1] = molecular target: Multidrug resistance associated protein (Homo sapiens) (UniProt Q96QA9); test: TP_TRANSPORTER: inhibition of MTX uptake (MTX: 1 uM, Vincristine: 300 uM) in membrane vesicle from MRP3-expessing HEK 293 cell; conditions: HEK293
Multidrug resistance associated protein (Homo sapiens), sequence (Q96QA9 as listed by the source): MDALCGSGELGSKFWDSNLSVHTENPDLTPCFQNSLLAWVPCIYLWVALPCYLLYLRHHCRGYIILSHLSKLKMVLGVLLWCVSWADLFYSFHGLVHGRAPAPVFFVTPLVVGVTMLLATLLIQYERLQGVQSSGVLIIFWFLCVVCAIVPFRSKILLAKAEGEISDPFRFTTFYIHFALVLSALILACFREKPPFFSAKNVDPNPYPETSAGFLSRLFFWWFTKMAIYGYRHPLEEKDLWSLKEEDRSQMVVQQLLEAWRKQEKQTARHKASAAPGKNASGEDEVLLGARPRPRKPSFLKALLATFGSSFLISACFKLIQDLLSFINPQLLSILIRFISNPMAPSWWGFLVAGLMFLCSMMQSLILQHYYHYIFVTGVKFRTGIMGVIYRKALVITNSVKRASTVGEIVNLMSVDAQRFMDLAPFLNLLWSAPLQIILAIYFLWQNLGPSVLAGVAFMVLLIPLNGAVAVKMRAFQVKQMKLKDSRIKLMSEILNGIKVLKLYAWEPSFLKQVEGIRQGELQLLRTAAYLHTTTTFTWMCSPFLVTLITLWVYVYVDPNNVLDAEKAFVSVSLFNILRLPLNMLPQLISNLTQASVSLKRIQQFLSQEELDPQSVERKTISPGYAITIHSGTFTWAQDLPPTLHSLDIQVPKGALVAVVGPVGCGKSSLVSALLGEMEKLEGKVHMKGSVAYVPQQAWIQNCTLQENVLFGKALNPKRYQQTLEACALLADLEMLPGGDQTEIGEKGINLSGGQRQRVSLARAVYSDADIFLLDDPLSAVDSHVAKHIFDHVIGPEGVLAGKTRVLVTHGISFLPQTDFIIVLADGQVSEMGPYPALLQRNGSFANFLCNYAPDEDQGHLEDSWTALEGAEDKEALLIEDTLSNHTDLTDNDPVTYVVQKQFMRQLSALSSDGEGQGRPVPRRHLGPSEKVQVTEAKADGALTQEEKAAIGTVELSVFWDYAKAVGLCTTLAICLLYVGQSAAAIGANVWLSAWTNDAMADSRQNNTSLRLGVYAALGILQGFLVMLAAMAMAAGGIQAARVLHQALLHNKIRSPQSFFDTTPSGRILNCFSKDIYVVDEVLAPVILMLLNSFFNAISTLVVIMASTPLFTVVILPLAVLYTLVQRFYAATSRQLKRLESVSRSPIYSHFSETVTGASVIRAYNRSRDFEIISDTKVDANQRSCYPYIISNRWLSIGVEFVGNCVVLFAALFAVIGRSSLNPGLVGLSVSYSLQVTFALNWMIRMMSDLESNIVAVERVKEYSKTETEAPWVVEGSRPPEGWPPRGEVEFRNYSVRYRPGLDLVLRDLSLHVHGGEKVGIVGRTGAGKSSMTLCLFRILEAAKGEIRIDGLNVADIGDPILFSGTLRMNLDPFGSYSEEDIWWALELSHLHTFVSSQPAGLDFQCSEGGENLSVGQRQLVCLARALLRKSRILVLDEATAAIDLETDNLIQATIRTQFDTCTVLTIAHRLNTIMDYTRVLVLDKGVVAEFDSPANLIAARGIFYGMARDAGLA

[2] = molecular target: Multidrug resistance associated protein (Homo sapiens) (UniProt Q96QA9); test: TP_TRANSPORTER: inhibition of MTX uptake (MTX: 1 uM, PAK-104P: 100 uM) in membrane vesicles from MRP3-expressing HEK293 cells; conditions: Membrane vesicle
[3] = molecular target: Multidrug resistance associated protein (Homo sapiens) (UniProt Q96QA9); test: TP_TRANSPORTER: inhibition of MTX uptake (MTX: 1 uM, AG-A: 1000 uM) in membrane vesicles from MRP3-expressing HEK293 cells; conditions: Membrane vesicle
[4] = molecular target: Multidrug resistance associated protein (Homo sapiens) (UniProt Q96QA9); test: TP_TRANSPORTER: inhibition of MTX uptake (MTX: 1 uM, VP-16: 300 uM) in membrane vesicles from MRP3-expressing HEK293 cells; conditions: Membrane vesicle
[5] = molecular target: Multidrug resistance associated protein (Homo sapiens) (UniProt Q96QA9); test: TP_TRANSPORTER: inhibition of MTX uptake (MTX: 1 uM, GC: 300 uM) in membrane vesicles from MRP3-expressing HEK293 cells; conditions: Membrane vesicle
[6] = molecular target: Multidrug resistance associated protein (Homo sapiens) (UniProt Q96QA9); test: TP_TRANSPORTER: inhibition of MTX uptake (MTX: 1 uM, MK571: 100 uM) in membrane vesicles from MRP3-expressing HEK293 cells; conditions: Membrane vesicle
[7] = molecular target: Multidrug resistance associated protein (Homo sapiens) (UniProt Q96QA9); test: TP_TRANSPORTER: inhibition of MTX uptake (MTX: 1 uM, PSC-833: 10 uM) in membrane vesicles from MRP3-expressing HEK293 cells; conditions: Membrane vesicle
[8] = molecular target: Multidrug resistance associated protein (Homo sapiens) (UniProt Q96QA9); test: TP_TRANSPORTER: inhibition of MTX uptake (MTX: 1 uM, E217betaG: 100 uM) in membrane vesicles from MRP3-expressing HEK293 cells; conditions: Membrane vesicle
[9] = molecular target: Multidrug resistance associated protein (Homo sapiens) (UniProt Q96QA9); test: TP_TRANSPORTER: inhibition of MTX uptake (MTX: 1 uM, DOX;G: 300 uM) in membrane vesicles from MRP3-expressing HEK293 cells; conditions: Membrane vesicle

Structure (SMILES): COc1cc([C@@H]2c3cc4c(cc3[C@@H](O[C@@H]3O[C@@H]5CO[C@@H](C)O[C@H]5[C@H](O)[C@H]3O)[C@H]3COC(=O)[C@H]23)OCO4)cc(OC)c1O
Activity [4]: 3.47%

Structure (SMILES): CN(C)C(=O)CCSC(SCCC(=O)O)c1cccc(/C=C/c2ccc3ccc(Cl)cc3n2)c1 (centres undefined)
Activity [6]: 2.3%

Structure (SMILES): C/C=C/C[C@@H](C)C(=O)[C@H]1C(=O)N[C@@H](C(C)C)C(=O)N(C)CC(=O)N(C)[C@@H](CC(C)C)C(=O)N[C@@H](C(C)C)C(=O)N(C)[C@@H](CC(C)C)C(=O)N[C@@H](C)C(=O)N[C@H](C)C(=O)N(C)[C@@H](CC(C)C)C(=O)N(C)[C@@H](CC(C)C)C(=O)N(C)[C@@H](C(C)C)C(=O)N1C
Activity [7]: 61.4%

Structure (SMILES): C[C@]12CC[C@@H]3c4ccc(O)cc4CC[C@H]3[C@@H]1CC[C@@H]2O[C@@H]1O[C@H](C(=O)O)[C@@H](O)[C@H](O)[C@H]1O
Activity [8]: 8.27%

Next, values leading:

Activity [1]: 39.1%
Structure (SMILES): CC[C@]1(O)C[C@H]2CN(CCc3c([nH]c4ccccc34)[C@@](C(=O)OC)(c3cc4c(cc3OC)N(C=O)[C@H]3[C@@](O)(C(=O)OC)[C@H](OC(C)=O)[C@]5(CC)C=CCN6CC[C@]43[C@@H]65)C2)C1

Activity [2]: 3%
Structure (SMILES): Cc1nc(C)c(P2(=O)O[C@H](C)C[C@@H](C)O2)c(-c2cccc([N+](=O)[O-])c2)c1C(=O)OCCN1CCN(C(c2ccccc2)c2ccccc2)CC1 (some centres undefined)

Activity [3]: 56.9%
Structure (SMILES): CC(=O)O[C@@H]1[C@@H]2[C@@H](OC(C)=O)C=C3[C@H]([C@H](O)C[C@]4(C)[C@@H]([C@H](C)[C@H](O)CCC(C)C)CC[C@@H]34)[C@@]2(C)CC[C@@H]1OC(C)=O

Activity [5]: 10.4%
Structure (SMILES): C[C@H](CCC(=O)NCC(=O)O)[C@H]1CC[C@H]2[C@@H]3[C@H](O)C[C@@H]4C[C@H](O)CC[C@]4(C)[C@H]3C[C@H](O)[C@]12C

Activity [9]: 80%
Structure (SMILES): COc1cccc2c1C(=O)c1c(O)c3c(c(O)c1C2=O)C[C@@](O)(C(=O)CO)C[C@@H]3O[C@H]1C[C@H](N)[C@H](O)[C@H](C)O1
